Experiments:
Italian ryegrass = assay: Test F pre-/postemergence herbicide test; assay type: in vivo, Lolium multiflorum
Source text: (§1) Seeds of plant species selected from annual blugrass (Poa annua L.), blackgrass (Alopecurus myosuroides Huds.), catchweed bedstraw (Gallium aparine L.), common chickweed (Stellaria media (L.) Vill./Cyr.), downy bromegrass (Bromus tectorum L.), green foxtail (Setaria viridis (L.) Beauv.), Italian ryegrass (Lolium multiflorum Lam.), kochia (Kochia scoparia (L.). Schrad.), lambsquarters (Chenopodium album L.), littleseed canarygrass (Phalaris minor Retz.), pigweed (Amaranthus retroflexus L.), Russian thistle (Salsola kali L. ssp. Ruthenica (Iljin) Soo), wild buckwheat (Polygonum convolvulus L.), wild mustard (Sinapis arvensis L.), wild oat (Avena fatua L.), windgrass (Apera spica-venti (L.) Beauv.), winter barley (Hordeum vulgare L.), and wheat (Triticum aestivum L.) were planted and treated preemergence with test chemicals formulated in a non-phytotoxic solvent mixture which included a surfactant.
(§2) At the same time, plants selected from these crop and weed species were treated with postemergence applications of some of the test chemicals formulated in the same manner. Plants ranged in height from 2 to 18 cm (1- to 4-leaf stage) for postemergence treatments. Treated plants and controls were maintained in a greenhouse for 12 to 14 days, after which time all species were compared to controls and visually evaluated. Plant response ratings, summarized in Table F, are based on a scale of 0 to 100 where 0 is no effect and 100 is complete control. A dash (-) response means no test result.

kochia = assay: Test F pre-/postemergence herbicide test; assay type: in vivo, Kochia scoparia
Source text: as §1, §2

green foxtail = assay: Test F pre-/postemergence herbicide test; assay type: in vivo, Setaria viridis
Source text: as §1, §2

pigweed = assay: Test F pre-/postemergence herbicide test; assay type: in vivo, Amaranthus retroflexus
Source text: as §1, §2

large crabgrass (DIGSA) = assay: Test J Compounds 2 and 6 alone and in combination with other herbicides, foliage spray; assay type: in vivo, Digitaria sanguinalis; parameters: key: 0 = no effect, 100 = complete control; details: applied alone
Source text: Colby's Equation was used to calculate the expected additive herbicidal effect of the mixtures of Compound 6 with Harmony® Extra (i.e. a 2:1 mixture by weight of thifensulfuron-methyl and tribenuron-methyl). […]
Seeds of test plants consisting of barnyardgrass (ECHCG; Echinochloa crus-galli (L.) Beauv.), blackgrass (ALOMY; Alopecurus myosuroides Huds.), Surinam grass (BRADC; Urochloa decumbens (Staph) R. D. Webster, previously named Brachiaria decumbens Stapf), cocklebur (XANST, Xanthium strumarium L.), corn (ZEAMD, Zea mays L. cv. ‘Pioneer 33G26’), large crabgrass (DIGSA, Digitaria sanguinalis (L.) Scop.), giant foxtail (SETFA, Setaria faberi Herrm.), lambsquarters (CHEAL, Chenopodium album L.), morningglory (IPOCO, Ipomoea coccinea L.), pigweed (AMARE, Amaranthus retroflexus L.), velvetleaf (ABUTH, Abutilon theophrasti Medik.) wheat (TRZAS, Triticum aestivum L. cv. ‘Recital’) and wild oat (AVEFA, Avena fatua L.) were planted in Redi-Earth® planting medium (Scotts Company, 14111 Scottslawn Road, Marysville, Ohio 43041) comprising spaghnum peat moss and vermiculite. […] Also listed in Table J are the expected effects for the mixtures calculated using Colby's Equation.

downy bromegrass = assay: Test A pre-/postemergence herbicide test; assay type: in vivo, Bromus tectorum; details: Preemergence, visual rating, 0 to 100 scale (0 no effect, 100 complete control)
Source text: Seeds of plant species selected from barnyardgrass (Echinochloa crus-galli (L.) Beauv.), downy bromegrass (Bromus tectorum L.), large crabgrass (Digitaria sanguinalis (L.) Scop.), giant foxtail (Setaria faberi Herrm.), morningglory (Ipomoea spp.), redroot pigweed (Amaranthus retroflexus L.) and velvetleaf (Abutilon theophrasti Medik.) were planted into a sandy loam soil and treated preemergence with a directed soil spray using test chemicals formulated in a non-phytotoxic solvent mixture which included a surfactant. At the same time plants selected from these species were also treated postemergence by spraying to runoff with test chemicals formulated.
Plants ranged in height from 2 to 10 cm and were in the one- to two-leaf stage for the postemergence treatment. Treated plants and untreated controls were maintained in a greenhouse for approximately ten days, after which time all treated plants were compared to untreated controls and visually evaluated for injury. Plant response ratings, summarized in Table A, are based on a 0 to 100 scale where 0 is no effect and 100 is complete control. A dash (-) response means no test results.

CCn1nc(C(C)(C)C)cc1C(=O)Nc1cc(C(=O)OC(C)C)c(F)cc1F [Compound 248]
Plant response rating (0-100), Ryegrass, Italian (Italian ryegrass; Postemergence, 31 g ai/ha): 45 | Plant response rating (0-100), Ryegrass, Italian (Italian ryegrass; Postemergence, 62 g ai/ha): 55 | Plant response rating (0-100), Ryegrass, Italian (Italian ryegrass; Postemergence, 125 g ai/ha): 60 | Plant response rating (0-100), Ryegrass, Italian (Italian ryegrass; Postemergence, 250 g ai/ha): 65 | Plant response rating (0-100), Ryegrass, Italian (Italian ryegrass; Preemergence, 31 g ai/ha): 30 | Plant response rating (0-100), Ryegrass, Italian (Italian ryegrass; Preemergence, 62 g ai/ha): 50 | Plant response rating (0-100), Ryegrass, Italian (Italian ryegrass; Preemergence, 125 g ai/ha): 50 | Plant response rating (0-100), Ryegrass, Italian (Italian ryegrass; Preemergence, 250 g ai/ha): 60 | Plant response rating (0-100), Kochia (kochia; Postemergence, 31 g ai/ha): 60 | Plant response rating (0-100), Kochia (kochia; Postemergence, 62 g ai/ha): 60 | Plant response rating (0-100), Kochia (kochia; Postemergence, 125 g ai/ha): 65 | Plant response rating (0-100), Kochia (kochia; Postemergence, 250 g ai/ha): 65 | Plant response rating (0-100), Kochia (kochia; Preemergence, 31 g ai/ha): 50 | Plant response rating (0-100), Kochia (kochia; Preemergence, 62 g ai/ha): 60 | Plant response rating (0-100), Kochia (kochia; Preemergence, 125 g ai/ha): 65 | Plant response rating (0-100), Kochia (kochia; Preemergence, 250 g ai/ha): 100 | Plant response rating (0-100), Foxtail, Green (green foxtail; Postemergence, 31 g ai/ha): 50 | Plant response rating (0-100), Foxtail, Green (green foxtail; Postemergence, 62 g ai/ha): 60 | Plant response rating (0-100), Foxtail, Green (green foxtail; Postemergence, 125 g ai/ha): 60 | Plant response rating (0-100), Foxtail, Green (green foxtail; Postemergence, 250 g ai/ha): 65 | Plant response rating (0-100), Foxtail, Green (green foxtail; Preemergence, 31 g ai/ha): 65 | Plant response rating (0-100), Foxtail, Green (green foxtail; Preemergence, 62 g ai/ha): 65 | Plant response rating (0-100), Foxtail, Green (green foxtail; Preemergence, 125 g ai/ha): 100 | Plant response rating (0-100), Foxtail, Green (green foxtail; Preemergence, 250 g ai/ha): 100 | Plant response rating (0-100), Pigweed (pigweed; Postemergence, 31 g ai/ha): 65 | Plant response rating (0-100), Pigweed (pigweed; Postemergence, 62 g ai/ha): 65 | Plant response rating (0-100), Pigweed (pigweed; Postemergence, 125 g ai/ha): 70 | Plant response rating (0-100), Pigweed (pigweed; Postemergence, 250 g ai/ha): 70 | Plant response rating (0-100), Pigweed (pigweed; Preemergence, 31 g ai/ha): 70 | Plant response rating (0-100), Pigweed (pigweed; Preemergence, 62 g ai/ha): 75 | Plant response rating (0-100), Pigweed (pigweed; Preemergence, 125 g ai/ha): 95 | Plant response rating (0-100), Pigweed (pigweed; Preemergence, 250 g ai/ha): 95

CCn1nc(C(C)(C)C)cc1C(=O)Nc1cc(C(=O)N(C)C)ccc1F [Compound 6, N-[5-[(dimethylamino)carbonyl]-2-fluorophenyl]-3-(1,1-dimethylethyl)-1-ethyl-1H-pyrazole-5-carboxamide]
DIGSA Obsd. (large crabgrass (DIGSA); 62 g a.i./ha): 8 | DIGSA Obsd. (large crabgrass (DIGSA); 125 g a.i./ha): 13

CC(=NO)c1cccc(NC(=O)c2cc(C(C)(C)C)nn2C)c1 [Compound 102]
Bromegrass, Downy plant response rating (downy bromegrass; 500 g ai/ha): 60 | Bromegrass, Downy plant response rating (downy bromegrass; 2000 g ai/ha): 60
